The text below walks through data of patent publication US11618747B2, “LXR modulators with bicyclic core moiety” (OrsoBio, Inc., priority 2018, dated 2023).

Test [1] has as its target T1, LXRβ ligand-binding domain (Homo sapiens, UniProt P55055, DUP175-175).
T1 construct: amino acids 156-461; NP009052; made in house; host or cells: E. coli
T1 sequence (P55055 with tags, fused parts or gaps DUP175-175 limits assumed): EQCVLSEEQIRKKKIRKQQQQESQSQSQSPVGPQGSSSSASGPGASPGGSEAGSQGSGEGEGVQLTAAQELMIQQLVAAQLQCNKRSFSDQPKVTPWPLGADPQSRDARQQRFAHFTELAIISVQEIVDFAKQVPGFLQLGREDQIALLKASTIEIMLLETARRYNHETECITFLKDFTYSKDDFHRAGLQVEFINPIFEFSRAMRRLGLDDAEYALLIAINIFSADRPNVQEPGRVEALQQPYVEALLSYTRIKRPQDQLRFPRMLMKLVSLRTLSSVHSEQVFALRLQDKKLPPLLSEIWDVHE
As to the kind of experiment: TR-FRETβ activity assay (NCoA3 coactivator peptide recruitment). Format: biochemical. In outline: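 GST-tagged human LXRβ LBD (aa 156-461, E. coli) at 76 nM with 400 nM biotinylated NCoA3 peptide in Tris/HCl pH 6.8, 240 mM KCl, BSA, 0.002% Triton-X-100, plus 1 μM 24(S)-25-epoxycholesterol as prestimulating agonist. Compounds at 50 μM down to 0.002 μM, 1 h at 4 °C. Coactivator recruitment by TR-FRET (Tb cryptate/XL665, 615/665 nm), triplicates.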

Another test addresses T2, full length (FL) LXRα (Homo sapiens, UniProt Q13133).
T2 construct: the full length (FL) proteins of LXRα (amino acids 1-447); NP005684; expressed in transfected cells; host or cells: HEK293
T2 sequence (Q13133 1-447): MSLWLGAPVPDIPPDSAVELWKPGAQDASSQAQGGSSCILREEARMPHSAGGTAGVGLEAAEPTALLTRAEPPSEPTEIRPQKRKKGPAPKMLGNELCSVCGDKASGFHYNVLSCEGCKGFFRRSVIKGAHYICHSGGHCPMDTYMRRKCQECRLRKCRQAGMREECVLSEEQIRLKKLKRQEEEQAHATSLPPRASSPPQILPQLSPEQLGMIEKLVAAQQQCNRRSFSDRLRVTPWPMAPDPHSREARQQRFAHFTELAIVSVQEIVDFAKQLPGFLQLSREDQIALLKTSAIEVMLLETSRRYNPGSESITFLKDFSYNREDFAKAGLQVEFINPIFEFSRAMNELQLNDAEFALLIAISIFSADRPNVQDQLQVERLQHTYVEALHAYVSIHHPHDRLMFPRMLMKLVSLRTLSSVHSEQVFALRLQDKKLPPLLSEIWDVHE
As to the kind of experiment: LXR Gal4 reporter transient transfection assay (FL-M2H Gal4α). Format: cell-based. To be noted: HEK293 cells. In outline:
(§1)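 Cells (HEK293, 3.5×10^4/well) were plated 16-20 h, transfected with LXR, cofactor and reporter plasmids, treated with compound after 4 h, and lysed after a further 16 h. Interaction of LXR constructs with SRC1 or NCoR is detected by GAL4-driven Firefly luciferase.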

In another test the target is T3, full length (FL) LXRβ (Homo sapiens, UniProt P55055, DUP175-175).
T3 construct: the full length (FL) proteins of LXRα (amino acids 1-447); NP005684; NP009052; expressed in transfected cells; host or cells: HEK293
T3 sequence (P55055 with tags, fused parts or gaps DUP175-175): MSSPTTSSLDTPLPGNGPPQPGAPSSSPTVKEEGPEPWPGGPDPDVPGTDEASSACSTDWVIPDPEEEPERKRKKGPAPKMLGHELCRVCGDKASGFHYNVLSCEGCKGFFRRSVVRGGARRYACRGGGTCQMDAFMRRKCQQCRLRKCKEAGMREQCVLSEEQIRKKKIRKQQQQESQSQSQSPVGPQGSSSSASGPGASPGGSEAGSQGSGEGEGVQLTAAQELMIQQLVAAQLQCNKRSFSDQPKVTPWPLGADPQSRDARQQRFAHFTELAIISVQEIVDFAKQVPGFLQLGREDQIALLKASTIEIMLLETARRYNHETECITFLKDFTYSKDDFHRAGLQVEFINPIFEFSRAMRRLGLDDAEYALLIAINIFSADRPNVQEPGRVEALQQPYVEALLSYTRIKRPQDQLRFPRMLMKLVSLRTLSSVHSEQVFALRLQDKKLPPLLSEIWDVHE
As to the kind of experiment: LXR Gal4 reporter transient transfection assay (FL-M2H Gal4β). It is filed as cell-based. To be noted: HEK293 cells. A digest of the protocol: as §1

[2] abbreviates: TR-FRET, 1 μM 24(S)-25-epoxycholesterol prestimulation, read-out: FRETβ (EC50 range).
The mark [3] stands for this setting: full length LXRα, read-out: FL-M2H Gal4α (EC50 range).
[4] abbreviates: full length LXRβ, read-out: FL-M2H Gal4β (EC50 range).

Like-named read-outs stand apart in the source and are kept apart here.

In the case of `CC(O)(C(=O)O)c1cc(F)c(-c2cccc(-c3c(-c4c(C#N)cccc4C#N)c4cc(F)ccc4n3S(=O)(=O)c3ccc(C(F)F)cc3)c2)c(F)c1` (centres unmarked) [3/72], the EC50 (in test [1] (setting [2]); at full length (FL) LXRα (setting [3]); at full length (FL) LXRβ (setting [4])) was under 100 nM in each case.

Consider `Cc1ccc(S(=O)(=O)n2c(-c3cccc(N4CC(C(=O)O)C4)c3)c(-c3ccccc3C3COC3)c3cc(F)ccc32)cc1` [3/31], for which the EC50 (in test [1] (setting [2]); on full length (FL) LXRα (setting [3]); at full length (FL) LXRβ (setting [4])) was 100 to 1000 nM in each case.

Take `Cc1ccc(S(=O)(=O)n2c(-c3cccc(C45CC(C(=O)O)(C4)C5)c3)c(-c3ccsc3C#N)c3ccccc32)cc1` [5/2]: the EC50 (in test [1] (setting [2]); at full length (FL) LXRα (setting [3]); at full length (FL) LXRβ (setting [4])) was 100 to 1000 nM throughout.

`O=C(O)c1ccc(-c2cccc(-c3c(-c4cccc5nncn45)c4cc(F)ccc4n3S(=O)(=O)c3ccc(C(F)F)cc3)c2)c(Cl)c1` [11/43]: the EC50 (in test [1] (setting [2]); on full length (FL) LXRα (setting [3]); at full length (FL) LXRβ (setting [4])) was 100 to 1000 nM each time.

Take `Cc1ccc(S(=O)(=O)n2c(-c3cccc(-c4ccc(C(=O)NS(C)(=O)=O)cc4Cl)c3)c(-c3ccsc3C#N)c3cc(F)ccc32)cc1` [32/4]: the EC50 (in test [1] (setting [2]); on full length (FL) LXRα (setting [3]); on full length (FL) LXRβ (setting [4])) was under 100 nM each time.

Regarding `Cc1cc(S(=O)(=O)n2c(-c3cccc(-c4ccc(C(=O)O)cc4Cl)c3)c(-c3ccsc3C#N)c3cc(F)ccc32)ccc1F` [3/23], the results for the EC50 (in test [1] (setting [2]); on full length (FL) LXRα (setting [3]); at full length (FL) LXRβ (setting [4])) were 100 to 1000 nM, under 100 nM and under 100 nM, respectively.

`Cc1ccc(S(=O)(=O)n2c(-c3cccc(C4(C)CC4C(=O)O)c3)c(-c3ccsc3C#N)c3cc(F)ccc32)cc1` (centres unmarked) [3/1]: the EC50 (in test [1] (setting [2]); at full length (FL) LXRα (setting [3]); on full length (FL) LXRβ (setting [4])) was 100 to 1000 nM each time.

As for `N#Cc1cccc(-c2c(-c3cccc(-c4ccc(C(=O)O)cc4Cl)c3)n(S(=O)(=O)c3ccc(C(F)F)cc3)c3ccc(F)cc23)c1` [C11/48, reference compound], the “FRETβ efficacy (value in brackets)” value in test [1] (1 μM 24(S)-25-epoxycholesterol as prestimulating agonist) is −96%. Besides, the EC50 in test [1] (1 μM 24(S)-25-epoxycholesterol as prestimulating agonist, read-out: FRETβ potency) was 49 nM; in test [1] (setting [2]), under 100 nM; at full length (FL) LXRα (read-out: FL-M2H Gal4α potency), 62 nM; at full length (FL) LXRβ (setting [4]), under 100 nM; on full length (FL) LXRβ (read-out: FL-M2H Gal4β potency), 32 nM. Besides, the “FL-M2H Gal4α efficacy (value in brackets)” value at full length (FL) LXRα came out at 118%. For the same molecule, the “FL-M2H Gal4β efficacy (value in brackets)” value at full length (FL) LXRβ is reported as 123%.

As for `N#Cc1cccc(C#N)c1-c1c(-c2cccc(-c3ccc(C(=O)O)cc3Cl)c2)n(S(=O)(=O)C2CC3CCC2C3)c2ccc(F)cc12` (centres unmarked) [11/66], the EC50 in test [1] (setting [2]) is 100 to 1000 nM; at full length (FL) LXRα (setting [3]), under 100 nM; on full length (FL) LXRβ (setting [4]) it was under 100 nM.

For the molecule `Cc1ccc(S(=O)(=O)n2c(-c3cccc(N4CC(C(=O)O)C4)c3)c(-c3sccc3C#N)c3cc(F)ccc32)cc1` [3/25], the results for the EC50 (in test [1] (setting [2]); at full length (FL) LXRα (setting [3]); at full length (FL) LXRβ (setting [4])) were 1000 to 10000 nM, 100 to 1000 nM and under 100 nM, respectively.

With `Cc1ccc(S(=O)(=O)n2c(-c3cccc(C#CC(C)(C)C(=O)O)c3)c(-c3ccsc3C#N)c3cc(F)ccc32)cc1` [5/4], the EC50 was 1000 to 10000 nM in test [1] (setting [2]), 100 to 1000 nM on full length (FL) LXRα (setting [3]) and under 100 nM on full length (FL) LXRβ (setting [4]).

As to `Cc1ccc(S(=O)(=O)n2c(-c3cc(N4CC(C(=O)O)C4)ccc3Cl)c(-c3ccsc3C#N)c3cc(F)ccc32)cc1` [3/40], the results for the EC50 (in test [1] (setting [2]); on full length (FL) LXRα (setting [3]); on full length (FL) LXRβ (setting [4])) were 1000 to 10000 nM, 100 to 1000 nM and under 100 nM, respectively.

Regarding `O=C(O)c1ccc(-c2cccc(-c3c(-c4ncccc4N4CC(O)C4)c4cc(F)ccc4n3S(=O)(=O)c3ccc(C(F)F)cc3)c2)c(Cl)c1` [5/10], the EC50 in test [1] (setting [2]) lay within 1000 to 10000 nM; at full length (FL) LXRα (setting [3]), 100 to 1000 nM; on full length (FL) LXRβ (setting [4]), 100 to 1000 nM.
